“Also recorded” adds a separate entry of the source.
Key:
[1] = system: homozygous mutant lettuce plant (Lactuca sativa), having a mutated version of the OPR3 gene; assay: Reversal of male sterility in homozygous OPR3 mutant lettuce by spraying young flower buds; type: in vivo; details: for restoration of male fertility in the F2 generation: F2 of cross of NCIMB 42060 plants with wild type lettuce, treatment as in Example 1; for seed production through selfing: 200 μM spray on inflorescences from early bolting stage, versus mock-treated controls (FIG. 1)
Excerpt: A mutant lettuce plant (Lactuca sativa), having a mutated version of the OPR3 gene, was obtained by means of chemical mutagenesis and subsequent TILLING screening of about 3,000 M2 plants.
Phenotypically this mutant lettuce plant was indistinguishable from wild type lettuce plants, when the mutation was present in a heterozygous state. […] The few pollen grains that developed in such homozygous mutants were not functional.
From the early bolting stage the inflorescences were sprayed 5 times per week, for a total of 3 weeks.

[2] = system: Arabidopsis thaliana with mutations in the OPR3 gene; details: Arabidopsis OPR3 mutants, flower buds treated; cited from earlier work
[3] = system: homozygous mutant endive plant (Cichorium endivia), having a mutated version of the OPR3 gene; assay: Reversal of male sterility in homozygous OPR3 mutant endive by treating young flower buds; type: in vivo; details: for restoration of male fertility in the F2 generation: F2 of cross of endive plants of the invention with wild type endive, treatment as in Example 3; for flower colour of flowers developed from treated buds: homozygous mutants (pale flowers untreated), about 3.5 months; for flower colour of flowers developed from treated buds / male fertility (functional pollen, seed set through self-pollination): 200 μM (0.2 mM) with 0.025% Zipper surfactant sprayed daily on young flower buds; for male fertility (functional pollen, seed set through self-pollination): homozygous mutants, controls remained male sterile
Excerpt: A mutant endive plant (Cichorium endivia), having a mutated version of the OPR3 gene, was obtained by means of chemical mutagenesis and subsequent TILLING screening of about 10,000 M2 plants.
Phenotypically this mutant endive plant was indistinguishable from wild type endive plants, when the mutation was present in a heterozygous state. […] The pollen grains that developed in such homozygous mutants were unable to germinate and therefore dysfunctional.
Blue was the wild type flower colour in this endive background.

Row | Compound | restoration of male fertility in the F2 generation [1] | restoration of male fertility ([1]; homozygous mutants, 200 μM (0.2 mM) aqueous solution plus 0.025% Zipper surfactant sprayed on young flower buds, 5 times per week for 3 weeks) | seed production through selfing ([1]; homozygous mutants) | seed production through selfing ([1]; homozygous mutants, listed as MeJA) | restoration of male fertility [2] | restoration of male fertility in the F2 generation [3] | flower colour of flowers developed from treated buds [3] | flower colour of flowers developed from treated buds ([3]; listed as MeJA) | male fertility (functional pollen, seed set through self-pollination) [3] | male fertility (functional pollen, seed set through self-pollination) ([3]; listed as MeJA) | effect of other application methods than spraying ([3]; solution painted onto the surface of young flower buds with a fine brush)
1 | CC/C=C\CC1C(=O)CCC1CC(=O)OC (centres unmarked) [methyl jasmonate] | sufficient to restore male fertility | sufficient to restore male fertility | has produced seeds through selfing | produced seeds in a subset of their flowers | could be restored | sufficient to restore male fertility | Its colour has changed to blue | developed into blue flowers | it has become male-fertile | produced viable, functional pollen and were able to set seed through self-pollination; also recorded: could be overcome | comparable effects
2 | CC/C=C\C[C@H]1C(=O)CC[C@@H]1CC(=O)O [jasmonic acid, (3R,7S)-jasmonic acid] | sufficient to restore male fertility |  |  |  |  | sufficient to restore male fertility |  |  | had the same effect |  | 

Source: US10724044B2, “Reversible genic male sterility in compositae” (priority 2013, dated 2020)
